Source: ChEMBL document CHEMBL4627341, “Synthesis and evaluation of anti-tumor activity of novel triazolo[1,5-a] pyrimidine on cancer cells by induction of cellular apoptosis and inhibition of epithelial-to-mesenchymal transition process” (Bioorg Med Chem Lett, 2020)
pIC50: −log10 of the molar value. Activity calls are given as the source filed them. No cut-off for these calls is given here.

Legend:
[1] = test system: LNCaP; assay: Cytotoxicity against human LNCAP cells assessed as reduction in cell viability incubated for 48 hrs by MTT assay; type: functional, cell-based
[2] = test system: NHDF; assay: Cytotoxicity against human HDF cells assessed as reduction in cell viability incubated for 48 hrs by MTT assay; type: cell-based
[3] = test system: A-375; assay: Cytotoxicity against human A375 cells assessed as reduction in cell viability incubated for 48 hrs by MTT assay; type: functional, cell-based; conditions: A-375, 48 h
[4] = test system: PC-3; assay: Cytotoxicity against human PC3 cells assessed as reduction in cell viability incubated for 48 hrs by MTT assay; type: functional, cell-based; conditions: PC-3, 48 h
[5] = test system: LNCaP; assay: Induction of cell death in human LNCAP cells assessed as morphological changes by DAPI staining based inverted fluorescence microscopy; type: functional
[6] = test system: A-375; assay: Induction of cell death in human A375 cells assessed as chromatin fragmentation by DAPI staining based inverted fluorescence microscopy; type: functional
[7] = test system: PC-3; assay: Induction of cell death in human PC3 cells assessed as morphological changes by DAPI staining based inverted fluorescence microscopy; type: functional
[8] = test system: A-375; assay: Induction of cell death in human A375 cells assessed as morphological changes by DAPI staining based inverted fluorescence microscopy; type: functional
[9] = test system: PC-3; assay: Induction of cell death in human PC3 cells assessed as chromatin fragmentation by DAPI staining based inverted fluorescence microscopy; type: functional
[10] = test system: LNCaP; assay: Inhibition of epithelial-mesenchymal transition in human LNCAP cells assessed as decrease in vimentin mRNA expression level by qRT-PCR analysis; type: functional, cell-based
[11] = test system: LNCaP; assay: Inhibition of epithelial-mesenchymal transition in human LNCAP cells assessed as increase in E-cadherin mRNA expression by qRT-PCR analysis; type: functional, cell-based
[12] = test system: LNCaP; assay: Inhibition of cell migration at human LNCAP cells incubated for 24 hrs by phase contrast microscopy based wound healing assay; type: functional
[13] = test system: LNCaP; assay: Induction of apoptosis in human LNCAP cells assessed as upregulation of Bax mRNA expression by qRT-PCR analysis; type: functional, cell-based
[14] = test system: LNCaP; assay: Induction of cell death in human LNCAP cells assessed as chromatin fragmentation by DAPI staining based inverted fluorescence microscopy; type: functional
[15] = test system: LNCaP; assay: Induction of apoptosis in human LNCAP cells assessed as downregulation of Bcl2 mRNA expression by qRT-PCR analysis; type: functional, cell-based

| Compound | pIC50 [1] | pIC50 [2] | pIC50 [3] | pIC50 [4] | further results |
| --- | --- | --- | --- | --- | --- |
| CNC1=C([N+](=O)[O-])C(c2ccc(C(F)(F)F)cc2)Nc2ncnn21 (configuration not stated) | < 4.00 | < 4.00 | 4.20 | < 4.00 | – |
| COc1cc([C@@H]2c3cc4c(cc3[C@@H](O[C@@H]3O[C@@H]5CO[C@@H](C)O[C@H]5[C@H](O)[C@H]3O)[C@H]3COC(=O)[C@H]23)OCO4)cc(OC)c1O [ETOPOSIDE] | 4.51 | < 4.00 | 4.61 | 4.52 | – |
| CNC1=C([N+](=O)[O-])C(c2cccc(F)c2)Nc2ncnn21 (configuration not stated) | < 4.00 | < 4.00 | 4.21 | 4.25 | – |
| CNC1=C([N+](=O)[O-])C(c2ccc([N+](=O)[O-])cc2)Nc2ncnn21 (configuration not stated) | 4.54 | < 4.00 | 4.50 | 4.19 | Activity [5]: Active; Activity [6]: Active; Activity [7]: Active; Activity [8]: Active; Activity [9]: Active; inhibition [10]: Active; inhibition [11]: Active; inhibition [12]: Active; Activity [13]: Active; Activity [14]: Active; Activity [15]: Active |
| CNC1=C([N+](=O)[O-])C(c2ccccc2Cl)Nc2ncnn21 (configuration not stated) | < 4.00 | < 4.00 | < 4.00 | 4.20 | – |
| CNC1=C([N+](=O)[O-])C(c2ccccc2)Nc2ncnn21 (configuration not stated) | < 4.00 | < 4.00 | < 4.00 | 4.35 | – |
| CNC1=C([N+](=O)[O-])C(c2ccc(Br)cc2)Nc2ncnn21 (configuration not stated) | < 4.00 | < 4.00 | < 4.00 | < 4.00 | – |
| CNc1c([N+](=O)[O-])c(-c2ccncc2)nc2ncnn12 | 4.50 | < 4.00 | < 4.00 | < 4.00 | – |
| CNC1=C([N+](=O)[O-])C(c2ccc(Cl)cc2)Nc2ncnn21 (configuration not stated) | < 4.00 | < 4.00 | < 4.00 | < 4.00 | – |
